Reference: patent publication US11491105B2, “Methods of treating microbial infections, including mastitis” (priority 2013, dated 2022)

Key:
[1] = system: red blood cells; assay: Eukaryotic cell toxicity testing (erythrocyte haemolysis); type: cell-based; settings: 2% blood cell solution, 37° C., one hour
Procedure: Erythrocyte haemolysis was used in order to test the toxicity of all five compounds to eukaryotic cells. Blood samples were washed using 9.1 g/L saline solution and centrifuged at 2500 rpm for 10 minutes. This process was repeated until cellular debris and partially lysed cells were removed from solution. 2 mL of the remaining blood cells were suspended in 98 mL of 9.1 g/L saline solution to produce a 2% blood cell solution, which was dispensed in 90 μL volumes into the wells of a 96 well plate. The compound solutions as well as chloramphenicol were prepared from stock solution to a concentration of 256 μg/mL (as described above). Chloramphenicol was used as a negative control for erythrocyte lysis while a ready to use solution of amphotericin B was used as a positive control. 90 μL of the compounds and controls were added to the final well in different rows. These compounds were serially diluted across the row in order to test the different concentrations of antimicrobials. Wells containing only 2% blood solution were also used to assess variation between readings from different columns on the 96 well plates. These tests were incubated at 37° C. for one hour and then assessed for lysis both visually and using a microplate reader to measure optical density at 600 nm wavelengths. Each test was performed in duplicate and then repeated in quadruplicate in order to ensure accuracy.

[2] = APVMA, December 2013, MRL Standard 2012; cited from earlier work
[3] = system: ATCC 49775 reference strain; assay: Microdilution time-kill assay; type: cell-based, Staphylococcus; settings: for growth (optical density) compared to growth control: over a 48 hour period
Procedure: (§1) Following assessment of MIC and MBC results, two compounds were chosen for analysis using microdilution time-kill assays, LP 1369 and LP 6315 and these were compared to ampicillin. Time-kill assays were performed according to the M26-A guidelines of the CLSI, with modifications. The test compounds and ampicillin were serial diluted in CAMHB across the rows of a 96 well plate and a bacterial suspension was prepared and added in the same manner as the MIC testing. […] The time points assessed were 0, 1, 2, 4, 8, 12, 24 and 48 hours after the addition of the bacterial suspension to the wells. Each test compound was tested in triplicate while ampicillin was tested in duplicate and this test was independently repeated. The bacterial strains used for the microdilution assays were chosen based on bactericidal activity evident during MBC testing. One strain from each of the categories of Staphylococcus in the isolate collection (methicillin-sensitive, methicillin resistant and coagulase negative) were selected as well as the ATCC reference strain for comparison. These strains were strains MSS 1, MSS 11, MRSA 9 and the ATCC 49775 reference strain.

[4] = system: Staphylococcus isolates (methicillin-sensitive and methicillin-resistant); assay: Minimum inhibitory concentration assay (Example 1); type: cell-based; settings: methicillin-resistant isolates
Procedure: Forty-two isolates of Staphylococcus of varying species and strain type were collected from isolate collections. Biochemical testing including coagulase, latex agglutination testing for protein A, Vogues-Proskauer tests and resistance to polymyxin B were used to identify the species of Staphylococcus. All isolates were also screened for resistance to various antimicrobials commonly used for the treatment of infections. This was performed using the disk diffusion method and resistance standards as outlined by the CLSI. The following antimicrobials were used: amoxicillin-clavulanic acid (30 μg), cephalothin (30 μg), clindamycin (2 μg), enrofloxacin (5 μg), erythromycin (15 μg), gentamicin (10 μg), imipenem (10 μg), oxacillin (1 μg), penicillin G (10 units), tetracycline (30 μg), 1:19 trimethoprim-sulfamethoxazole (25 μg) and vancomycin (30 μg).
Minimum inhibitory concentration tests were performed according to CLSI Standards (CLSI 2012). 90 μL of one of the test compound solutions, or ampicillin, was added to the end column of a 96 well plate that contained 90 μL of CAMHB in each well. The solutions were then serially diluted across the row, leaving 2 columns for positive and negative controls (FIG. 2). A bacterial suspension was prepared by adding fresh colonies obtained from an overnight culture on Sheep Blood Agar (SBA) to a 9.1 g/L saline solution. This suspension was adjusted to a concentration of between 4×10^8 and 5×10^8 CFU/mL. Concentration of the suspension was determined by measuring optical density (OD) using a spectrophotometer at a wavelength of 600 nm where the correct concentration was determined to have an optical density of between 1.00 and 1.20. 1 mL of this suspension was added to 9 mL of saline before being added to all wells, excluding the negative control wells, in 10 μL volumes giving a final concentration of between 4×10^5 and 5×10^5 CFU/mL in each well. The tests were then incubated for 24 hours at 37° C. and then assessed both visually and using OD readings from a microplate reader at a wavelength of 600 nm. These tests were performed in duplicate but repeated if discrepancies were observed.
The minimum inhibitory concentration (MIC) was determined to be the lowest concentration of antibiotic that prevented growth of bacteria both visually and using OD readings. Direct statistical comparisons between the test compounds and ampicillin could not be performed in light of confidential information restrictions, such as restrictions on disclosure of information relating to the compound structure, such as molecular weight. Instead, MIC values were collated and used to determine the lowest concentration of each compound that was effective against 50% and 90% of isolates, referred to as the MIC50 and MIC90 respectively. These values as well as the range of MIC values were then used for direct comparisons between test compounds and for general comparisons with ampicillin.

[5] = Residue depletion of LP1369 in milk of treated mastitis quarters (Example 9); parameters: species or system lactating dairy cows; settings: in vivo
Procedure: Data on concentrations of LP1369 in milk from 6 quarters for IVP 1 and IVP 2 treated at 6 occasions (6 consecutive milkings) after treatment was provided by the analytical laboratory at the School of Pharmacy, University of South Australia, Adelaide, SA, Australia. The limit of quantification (LoQ) of the method for LP1369 in milk was 0.088 mg/L. The Maximum Residues level (MRL) for LP1369 is 0.010 mg/kg according to the APVMA, December 2013, Agricultural and Veterinary Chemicals Code Instrument No. 4 (MRL Standard) 2012.
In milk samples where LP1369 levels were below the LoQ, LP1369 concentration was set to 0.0001 mg/L.
Therefore, the concentrations of LP1369 in whole milk were log-transformed before calculating means and standard deviations (weighted by the volume of milk produced by each animal) for each time point, using Microsoft Excel 2010.
The determination of the depletion of any substance from milk is affected by the size of the population studied. As the number of sampled cows in this study was small, the g′ factor (a factor that provides a 99% confidence interval so that results are likely to be representative of the population) was applied to the analysis. The possibility of dispersed data was minimised by fixing the g′ factor for a population of 20 animals.
The following assumptions were made. […]

[6] = system: MRSA 9; assay: Microdilution time-kill assay; type: cell-based, Staphylococcus aureus; settings: 1×MIC; increase evident after 24 hours
Procedure: as §1

| Compound | concentration at which lysis was most visually evident [1] [µg/mL] | concentration range in which some lysis of cells was observed [1] [µg/mL] | Maximum Residues level (MRL) [2] [mg/kg] | growth (optical density) compared to growth control [3] | MIC50 and MIC90 values compared with ampicillin [4] | clearance from treated quarters with mastitis (in words) [5] | growth at the MIC ([3]; at the MIC, 48 hours) | growth at 1×MIC [6] |
| --- | --- | --- | --- | --- | --- | --- | --- | --- |
| CC[C@@H](C(=O)[C@@H](C)[C@@H](O)[C@H](C)CCc1ccc(C)c(O)c1C(=O)O)[C@H]1O[C@](CC)([C@H]2CC[C@](O)(CC)[C@H](C)O2)C[C@@H]1C [LP 1369, Lasalocid] | 64 | 32 to 128 | 0.010 | prevented the growth | considerably lower than ampicillin | cleared rapidly | – | – |
| CO[C@@H]1[C@@H](OC)[C@H](C)[C@@](O)(CC(=O)O)O[C@H]1[C@H](C)[C@H]1O[C@@]2(CC[C@@](C)([C@H]3CC[C@@](C)([C@@H]4O[C@@H]([C@H]5O[C@](C)(O)[C@H](C)C[C@@H]5C)C[C@@H]4O[C@@H]4C[C@H](OC)[C@@H](OC)[C@H](C)O4)O3)O2)C[C@H](O)[C@H]1C.N [LP 6315, Maduramicin] | – | – | – | prevented the growth | considerably lower than ampicillin | – | Some growth was observed after 48 hours | after 48 hours this growth was no longer observed |
